Test results from PMC9300271, “Identifying Active Compounds and Mechanisms of Citrus changshan-Huyou Y. B. Chang against URTIs-Associated Inflammation by Network Pharmacology in Combination with Molecular Docking” (Evidence-based Complementary and Alternative Medicine : eCAM, 2022).

How the values were obtained:
PI3Kβ (p110β/p85α) = PI3Kβ (p110β/p85α) (Homo sapiens, UniProt P42338); assay: ADP-Glo Kinase Assay, inhibition of PI3Kβ
PI3Kδ (p110δ/p85α) = PI3Kδ (p110δ/p85α) (Homo sapiens, UniProt O00329); assay: ADP-Glo Kinase Assay, inhibition of PI3Kδ
Sequence of PI3Kδ (p110δ/p85α) (O00329 whole entry): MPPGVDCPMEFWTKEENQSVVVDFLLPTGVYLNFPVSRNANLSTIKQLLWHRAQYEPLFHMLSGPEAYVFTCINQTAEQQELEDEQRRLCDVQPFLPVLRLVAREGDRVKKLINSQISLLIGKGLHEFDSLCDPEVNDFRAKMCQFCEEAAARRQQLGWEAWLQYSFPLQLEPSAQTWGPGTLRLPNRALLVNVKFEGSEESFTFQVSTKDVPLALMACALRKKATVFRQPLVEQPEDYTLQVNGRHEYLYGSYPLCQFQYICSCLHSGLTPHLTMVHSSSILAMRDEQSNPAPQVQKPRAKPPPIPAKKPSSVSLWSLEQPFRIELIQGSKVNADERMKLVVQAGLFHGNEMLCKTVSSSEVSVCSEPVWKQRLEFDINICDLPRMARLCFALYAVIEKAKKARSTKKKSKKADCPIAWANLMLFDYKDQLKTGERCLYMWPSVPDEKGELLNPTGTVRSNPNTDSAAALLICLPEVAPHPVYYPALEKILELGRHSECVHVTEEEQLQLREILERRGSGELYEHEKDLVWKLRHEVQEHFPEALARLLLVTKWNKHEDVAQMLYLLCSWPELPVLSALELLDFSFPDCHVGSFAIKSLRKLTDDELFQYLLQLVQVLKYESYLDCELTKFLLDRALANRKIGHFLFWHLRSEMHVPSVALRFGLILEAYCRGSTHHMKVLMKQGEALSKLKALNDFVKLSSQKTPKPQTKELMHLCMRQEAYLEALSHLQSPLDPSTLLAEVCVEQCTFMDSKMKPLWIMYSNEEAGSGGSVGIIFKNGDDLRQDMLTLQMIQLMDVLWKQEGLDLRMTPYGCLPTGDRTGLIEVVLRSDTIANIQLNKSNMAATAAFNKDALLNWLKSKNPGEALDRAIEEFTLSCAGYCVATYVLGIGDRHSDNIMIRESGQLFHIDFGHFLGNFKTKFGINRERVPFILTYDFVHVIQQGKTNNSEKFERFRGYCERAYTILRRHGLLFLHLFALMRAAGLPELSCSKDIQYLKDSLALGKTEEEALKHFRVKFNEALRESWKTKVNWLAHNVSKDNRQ
Sequence of PI3Kδ (p110δ/p85α) (P27986 whole entry partner): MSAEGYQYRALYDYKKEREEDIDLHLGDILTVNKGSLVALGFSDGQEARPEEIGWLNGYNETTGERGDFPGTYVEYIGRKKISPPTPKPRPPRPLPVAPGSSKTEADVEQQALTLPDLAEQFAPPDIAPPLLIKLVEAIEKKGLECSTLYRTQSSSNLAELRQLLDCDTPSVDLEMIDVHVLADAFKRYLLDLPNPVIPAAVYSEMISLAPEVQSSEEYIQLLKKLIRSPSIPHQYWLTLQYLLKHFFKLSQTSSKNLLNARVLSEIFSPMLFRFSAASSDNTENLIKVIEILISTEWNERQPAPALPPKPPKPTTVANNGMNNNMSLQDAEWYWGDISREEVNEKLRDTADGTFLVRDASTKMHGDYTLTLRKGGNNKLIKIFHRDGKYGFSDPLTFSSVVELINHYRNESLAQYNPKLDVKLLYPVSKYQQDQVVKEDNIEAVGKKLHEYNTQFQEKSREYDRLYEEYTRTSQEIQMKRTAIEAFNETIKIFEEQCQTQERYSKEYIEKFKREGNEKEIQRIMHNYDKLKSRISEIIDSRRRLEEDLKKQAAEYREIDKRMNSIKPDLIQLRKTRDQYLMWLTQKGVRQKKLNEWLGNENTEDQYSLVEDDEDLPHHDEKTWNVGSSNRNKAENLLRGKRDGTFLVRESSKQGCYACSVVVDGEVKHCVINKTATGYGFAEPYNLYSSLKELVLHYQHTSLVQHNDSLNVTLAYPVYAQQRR

PI3Kγ (p120γ) = PI3Kγ (p120γ) (Homo sapiens, UniProt P48736); assay: ADP-Glo Kinase Assay, inhibition of PI3Kγ
Sequence of PI3Kγ (p120γ) (P48736 whole entry): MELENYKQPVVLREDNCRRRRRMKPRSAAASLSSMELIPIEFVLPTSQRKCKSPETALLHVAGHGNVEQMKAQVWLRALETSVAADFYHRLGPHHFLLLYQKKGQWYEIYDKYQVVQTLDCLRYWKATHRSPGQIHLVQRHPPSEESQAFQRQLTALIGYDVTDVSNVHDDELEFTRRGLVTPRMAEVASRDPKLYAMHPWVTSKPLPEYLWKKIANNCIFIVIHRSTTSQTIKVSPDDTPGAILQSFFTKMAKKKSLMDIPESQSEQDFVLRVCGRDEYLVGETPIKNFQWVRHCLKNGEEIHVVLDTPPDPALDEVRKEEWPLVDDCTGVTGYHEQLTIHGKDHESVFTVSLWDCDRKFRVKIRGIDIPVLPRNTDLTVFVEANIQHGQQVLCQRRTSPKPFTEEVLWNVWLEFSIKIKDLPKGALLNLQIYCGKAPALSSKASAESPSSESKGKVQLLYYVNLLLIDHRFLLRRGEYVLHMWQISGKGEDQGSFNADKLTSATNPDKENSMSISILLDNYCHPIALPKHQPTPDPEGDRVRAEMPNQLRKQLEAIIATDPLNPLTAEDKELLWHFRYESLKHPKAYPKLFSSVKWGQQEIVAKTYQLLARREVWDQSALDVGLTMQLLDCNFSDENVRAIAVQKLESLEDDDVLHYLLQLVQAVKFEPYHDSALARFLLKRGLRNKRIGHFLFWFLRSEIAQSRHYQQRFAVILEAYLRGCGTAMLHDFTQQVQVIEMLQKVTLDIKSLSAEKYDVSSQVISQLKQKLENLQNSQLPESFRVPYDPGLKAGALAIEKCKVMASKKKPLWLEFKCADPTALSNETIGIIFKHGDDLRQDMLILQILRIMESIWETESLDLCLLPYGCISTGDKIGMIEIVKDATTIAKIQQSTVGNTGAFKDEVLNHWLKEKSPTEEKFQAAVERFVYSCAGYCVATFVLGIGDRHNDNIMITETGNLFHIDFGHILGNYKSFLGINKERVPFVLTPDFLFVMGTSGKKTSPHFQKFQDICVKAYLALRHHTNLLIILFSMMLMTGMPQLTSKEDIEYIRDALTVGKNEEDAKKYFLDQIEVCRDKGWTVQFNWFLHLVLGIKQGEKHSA

PI3Kα (p110α/p85α) = PI3Kα (p110α/p85α) (Homo sapiens, UniProt P42336); assay: ADP-Glo Kinase Assay, inhibition of PI3Kα
Sequence of PI3Kα (p110α/p85α) (P42336 whole entry): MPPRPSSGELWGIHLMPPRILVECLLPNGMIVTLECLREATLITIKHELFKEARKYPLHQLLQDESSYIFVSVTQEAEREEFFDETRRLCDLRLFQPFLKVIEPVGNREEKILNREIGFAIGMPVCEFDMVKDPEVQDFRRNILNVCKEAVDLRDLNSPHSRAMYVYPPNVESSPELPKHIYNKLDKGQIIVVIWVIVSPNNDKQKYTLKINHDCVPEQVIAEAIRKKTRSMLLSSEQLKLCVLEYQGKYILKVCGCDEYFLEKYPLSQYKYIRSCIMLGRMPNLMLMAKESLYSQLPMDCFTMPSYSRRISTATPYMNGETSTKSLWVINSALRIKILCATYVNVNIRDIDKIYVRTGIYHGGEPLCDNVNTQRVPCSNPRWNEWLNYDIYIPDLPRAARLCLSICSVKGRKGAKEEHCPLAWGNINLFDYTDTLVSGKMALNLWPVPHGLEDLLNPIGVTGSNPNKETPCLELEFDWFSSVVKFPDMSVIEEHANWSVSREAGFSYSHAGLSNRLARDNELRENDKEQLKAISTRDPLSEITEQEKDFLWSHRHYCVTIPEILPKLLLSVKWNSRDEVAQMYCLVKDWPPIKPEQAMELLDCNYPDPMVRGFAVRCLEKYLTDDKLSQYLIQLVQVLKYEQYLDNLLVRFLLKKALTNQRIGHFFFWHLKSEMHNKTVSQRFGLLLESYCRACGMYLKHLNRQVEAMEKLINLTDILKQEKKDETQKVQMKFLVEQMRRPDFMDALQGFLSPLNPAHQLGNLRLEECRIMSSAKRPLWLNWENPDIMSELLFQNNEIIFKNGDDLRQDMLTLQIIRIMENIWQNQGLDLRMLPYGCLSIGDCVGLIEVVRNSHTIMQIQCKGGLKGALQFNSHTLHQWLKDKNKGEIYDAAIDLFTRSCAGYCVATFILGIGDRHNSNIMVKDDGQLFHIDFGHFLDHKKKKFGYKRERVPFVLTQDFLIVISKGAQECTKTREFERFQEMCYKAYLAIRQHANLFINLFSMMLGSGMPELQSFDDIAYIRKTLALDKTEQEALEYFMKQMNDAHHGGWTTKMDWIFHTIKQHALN
Sequence of PI3Kα (p110α/p85α) (P27986 whole entry partner): as the sequence (P27986 whole entry partner) above

[1] = retrieved from database; ref TCMSP database [18]; cited from earlier work
[2] = parameters: method as in TCMSP database [18]; conditions: retrieved from database; ref TCMSP database [18]; in h (unit assumed); cited from earlier work

Sequence of PI3Kβ (p110β/p85α) (P42338 whole entry): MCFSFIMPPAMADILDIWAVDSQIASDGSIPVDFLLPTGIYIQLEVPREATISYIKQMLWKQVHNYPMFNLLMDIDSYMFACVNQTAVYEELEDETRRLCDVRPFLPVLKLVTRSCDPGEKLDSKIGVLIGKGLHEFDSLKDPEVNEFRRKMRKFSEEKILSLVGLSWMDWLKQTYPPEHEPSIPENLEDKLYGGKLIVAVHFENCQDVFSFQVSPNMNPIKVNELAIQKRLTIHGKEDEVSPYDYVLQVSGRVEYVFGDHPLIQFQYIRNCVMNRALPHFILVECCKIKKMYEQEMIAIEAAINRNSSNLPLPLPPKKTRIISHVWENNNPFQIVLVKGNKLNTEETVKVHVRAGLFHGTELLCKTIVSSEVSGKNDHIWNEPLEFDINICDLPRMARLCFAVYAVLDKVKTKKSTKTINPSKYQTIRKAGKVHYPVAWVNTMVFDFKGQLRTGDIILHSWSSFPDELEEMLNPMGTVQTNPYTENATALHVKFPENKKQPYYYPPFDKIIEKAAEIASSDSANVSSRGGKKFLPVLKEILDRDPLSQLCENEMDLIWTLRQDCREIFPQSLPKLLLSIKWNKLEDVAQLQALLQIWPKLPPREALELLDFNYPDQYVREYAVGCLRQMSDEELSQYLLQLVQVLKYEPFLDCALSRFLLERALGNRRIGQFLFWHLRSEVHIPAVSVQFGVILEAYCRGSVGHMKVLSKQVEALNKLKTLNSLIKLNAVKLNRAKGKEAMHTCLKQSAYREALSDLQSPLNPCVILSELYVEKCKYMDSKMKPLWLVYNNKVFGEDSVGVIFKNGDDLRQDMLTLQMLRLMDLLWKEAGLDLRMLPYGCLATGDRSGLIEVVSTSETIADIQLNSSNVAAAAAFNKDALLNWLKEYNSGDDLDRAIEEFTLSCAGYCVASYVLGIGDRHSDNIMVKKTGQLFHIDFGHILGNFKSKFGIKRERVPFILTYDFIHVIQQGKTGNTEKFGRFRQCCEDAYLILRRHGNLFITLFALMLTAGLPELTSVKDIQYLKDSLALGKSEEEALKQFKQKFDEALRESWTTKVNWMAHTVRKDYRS
Sequence of PI3Kβ (p110β/p85α) (P27986 whole entry partner): as the sequence (P27986 whole entry partner) above

Row | Compound | IC50 (PI3Kβ (p110β/p85α)) [µM] | IC50 (PI3Kδ (p110δ/p85α)) [µM] | IC50 (PI3Kγ (p120γ)) [µM] | IC50 (PI3Kα (p110α/p85α)) [µM] | OB (oral bioavailability) [1] [%] | HL (drug half-life) [2]
1 | COc1ccc([C@@H]2CC(=O)c3c(O)cc(O)cc3O2)cc1O [HES, hesperetin] | > 40 | > 40 | > 40 | > 40 | 70.31 | 15.78
2 | O=c1cc(-c2ccc(O)c(O)c2)oc2cc(O)cc(O)c12 [LUT, luteolin] | 2.95 ± 0.19 | 1.55 ± 0.15 | 5.79 ± 0.1 | 2.49 ± 0.34 | 36.16 | 15.94
3 | O=C1C[C@@H](c2ccc(O)cc2)Oc2cc(O)cc(O)c21 [NAR, naringenin] | > 40 | > 40 | > 40 | > 40 | 59.29 | 
4 | COc1ccc(-c2cc(=O)c3c(OC)c(OC)c(OC)c(OC)c3o2)cc1OC [NOB, nobiletin] |  |  |  |  | 61.67 | 16.20

More lines, main results first:

Row | IC50 (PI3Kβ (p110β/p85α)) [µM] | IC50 (PI3Kδ (p110δ/p85α)) [µM] | IC50 (PI3Kγ (p120γ)) [µM] | IC50 (PI3Kα (p110α/p85α)) [µM] | Compound | OB (oral bioavailability) [1] [%] | HL (drug half-life) [2]
5 | > 40 | > 40 | 13.8 ± 1.31 | > 40 | CC(C)=CCC/C(C)=C/COc1ccc2ccc(=O)oc2c1 [AUR, auraptene] | 25.62 | 
6 | > 40 | > 40 | 17.7 ± 1.16 | > 40 | COc1ccc(-c2cc(=O)c3c(OC)c(OC)c(OC)c(OC)c3o2)cc1 [TAN, tangeretin] | 21.38 | 
